# Measurements: patent US20120308562A1, “METHODS OF TREATING MESOTHELIOMA WITH A PI3K INHIBITOR COMPOUND” (priority 2011, published 2012)
# Where two headings read alike, the source gives them in different places.
# What was measured:
# adrenal cortical cancer = assay: Phase I tumor response by RECIST, adrenal cortical cancer patient; settings: person, 40 mg QD, 28/28 day schedule
# Protocol: (§1) Tumor assessments (CT and/or magnetic resonance imaging [MRI] scans) are performed approximately every 6 weeks irrespective of dose delays, interruptions, or reductions. Bone and brain scans (either CT or MRI) may be performed at baseline and if clinically indicated during the study. Patient management decisions were made based on tumor assessments performed by investigators. The primary study endpoints related to response were determined by an independent radiologic review of patient scans, with assessments based on investigator reporting being secondary. If each non-target lesion cannot be assessed at a follow-up tumor assessment timepoint, patients may still be considered evaluable for timepoint response as long as all target lesions are measured. Patients with non-target lesions that were not assessed at a timepoint were assessed as having a partial response, stable disease, or progressive disease. All lesions, target and non-target, were assessed before a response was considered confirmed. To reduce the frequency of unevaluable non-target lesions, bone lesions visible on baseline CT scan as non-target lesion(s) for follow-up, were compared with bone lesions identified on the baseline bone scan where possible if lesions are not visible on both modalities or as easily and reproducibly assessed. […]
# [1] = Phase I safety and tolerability
# Protocol: (§2) Patients with a history of Type 1 or 2 diabetes mellitus requiring regular medication were excluded. GDC-0980 was administered on Day 1, followed by 1 week of washout to evaluate single-dose PK and PD markers. GDC-0980 was then dosed QD for either 21 days or 28 days every 28-day cycle. Tumor assessments were performed after Cycles 1, 2, and then every 2 cycles using RECIST guidelines. Optional FDG-PET was obtained between Days 22-28 and Days 50-57.
# (§3) Fasted blood glucose & insulin were monitored at clinical visits (pre-dose & 2 hrs post-dose). Dosing with GDC-0980 was allowed with =G2 blood glucose with appropriate monitoring, i.e., additional monitoring in clinic and fingerstick glucose testing at home.
# (§4) Safety Analyses: All patients who receive any amount of GDC-0980 therapy will be included in the safety analyses. Safety will be assessed through summaries of adverse events, deaths, and changes in laboratory test results. All adverse events for all patients will be collected for the safety dataset. Verbatim descriptions of adverse events will be mapped to thesaurus terms. All recorded adverse event data will be listed by study site, patient, and cycle. All adverse events occurring on or after the first treatment will be summarized by mapped term, appropriate thesaurus levels, and NCI CTCAE, v3.0 toxicity grade. All serious adverse events will be listed separately and summarized. In addition, the incidence of symptomatic CHF and/or LVEF <40% will be summarized. Deaths reported during the study treatment period and those reported during follow-up after patient treatment discontinuation will be summarized. Laboratory data will be summarized by grade using the NCI CTCAE, v3.0 toxicity grade. Changes in LVEF over time will be summarized and listed by scheduled measurement time. The occurrence of antibodies to GDC-0980 will be listed.
# mTOR = mTOR (Homo sapiens, UniProt P42345); assay: biochemical
# pAKT (S473) in PRP = assay: pAKT in platelet-rich plasma (MSD assay), Phase I; format: in vivo, human
# Protocol: pAKT in PRP: Total AKT and pAKT (S473) in PRP were measured by Meso Scale Discovery (MSD) assay, and the percent change in pAKT relative to baseline was calculated.
# mesothelioma = assay: Phase I tumor response by RECIST, mesothelioma patients; settings: person; for decrease in target lesions by RECIST: 21/28 day schedule
# Protocol: Tumor assessments (CT and/or magnetic resonance imaging [MRI] scans) are performed approximately every 6 weeks irrespective of dose delays, interruptions, or reductions. Bone and brain scans (either CT or MRI) may be performed at baseline and if clinically indicated during the study. Patient management decisions were made based on tumor assessments performed by investigators. The primary study endpoints related to response were determined by an independent radiologic review of patient scans, with assessments based on investigator reporting being secondary. If each non-target lesion cannot be assessed at a follow-up tumor assessment timepoint, patients may still be considered evaluable for timepoint response as long as all target lesions are measured. Patients with non-target lesions that were not assessed at a timepoint were assessed as having a partial response, stable disease, or progressive disease. All lesions, target and non-target, were assessed before a response was considered confirmed. To reduce the frequency of unevaluable non-target lesions, bone lesions visible on baseline CT scan as non-target lesion(s) for follow-up, were compared with bone lesions identified on the baseline bone scan where possible if lesions are not visible on both modalities or as easily and reproducibly assessed.
# Tumor assessments were performed after Cycles 1, 2, and then every 2 cycles using RECIST guidelines. Optional FDG-PET was obtained between Days 22-28 and Days 50-57.
# [2] = Phase I clinical pharmacokinetics (plasma, LC-MS/MS); format: in vivo, human; settings: for AUC(0-t): oral, individual patient, read-out: AUC0-24 h
# Protocol: For Cycle 1 of the Phase I study, a single dose of GDC-0980 is administered to patients on Day 1 in a clinical setting that can accommodate frequent blood draws over a period of up to 48 hours after the dose is administered. Daily dosing will begin on Day 8 and continue for 21 days (Days 8-28), followed by a 7-day off-drug observation period (Days 29-35). Subsequent cycles will be 28 days in length (21 days of daily dosing followed by a 7-day observation period). Additional cohorts may be added to examine the tolerability of a 28-day dosing schedule with no observation period after the MTD is […] defined for the 21-day dosing schedule. GDC-0980 should be taken on an empty stomach (fasting) in the morning, unless otherwise instructed. For all patients Days 1 and 15 (PK sampling days), patients should be fasted overnight (at least 8-10 hours) prior to their dose on those days. On other days, patients should avoid consuming anything but water for 1 hour before and 2 hours after GDC-0980 administration. Each dose should be taken with a minimum of 3-4 ounces of water. […] PK: Plasma GDC-0980 concentrations were assayed by LC-MS/MS (Tandem Labs, Inc., Salt Lake City, Utah) with LLOQ 0.5 ng/mL and analyzed using noncompartmental analysis.
# [3] = in vivo
# Protocol: as §2, §3, §4
# clearance in dogs = settings: dog, in vivo
# [4] = pharmacokinetics after a single oral dose (species not given); format: in vivo; settings: species not stated
# MDA-MB-361.1 xenografts = assay: nonclinical PK/PD model of tumor growth inhibition with predicted human PK; settings: predicted human PK and nonclinical PD data, preliminary
# Text: A nonclinical PK/PD model of tumor growth inhibition was developed using the indirect response model (Jusko W J. “Pharmacodynamics of chemotherapeutic effects: dose-time-response relationships for phase-nonspecific agents”, J Pharm Sci (1971) 60:892-5) to fit exposure and growth inhibition data based on four sets of experiments examining varying schedules and doses in the MDA-MB-361.1 xenografts. The PK/PD model was then used to predict minimal exposure needed to achieve 50% tumor growth inhibition, using the predicted human PK data and the nonclinical PD data. […] On the basis of MLP allometric scaling, a daily dose of approximately 18 mg may achieve this exposure. Dose escalation will continue until the MTD, even if 1.7 μM·hr exposure is surpassed and well tolerated, since it is well established that tumor xenograft models are not absolutely predictive of clinical response (Sausville and Burger 2006).
# solid tumors = assay: Phase I best RECIST response and time on study, all enrolled patients; settings: peritoneal mesothelioma and adrenal cancer patients
# Protocol: as §1
# MCF7-neo/HER2 cell line = MCF7-neo/HER2 cell line IC50; format: cell-based
# [5] = test system: MDA-MB-361.1 breast cancer xenograft; assay: MDA-MB-361.1 breast cancer xenograft model; format: in vivo; settings: QD
# [6] = stability in human microsomes; format: in vitro ADME
# hERG = hERG (Homo sapiens, UniProt Q12809); assay: hERG activity
# Sequence of hERG (Q12809 whole entry): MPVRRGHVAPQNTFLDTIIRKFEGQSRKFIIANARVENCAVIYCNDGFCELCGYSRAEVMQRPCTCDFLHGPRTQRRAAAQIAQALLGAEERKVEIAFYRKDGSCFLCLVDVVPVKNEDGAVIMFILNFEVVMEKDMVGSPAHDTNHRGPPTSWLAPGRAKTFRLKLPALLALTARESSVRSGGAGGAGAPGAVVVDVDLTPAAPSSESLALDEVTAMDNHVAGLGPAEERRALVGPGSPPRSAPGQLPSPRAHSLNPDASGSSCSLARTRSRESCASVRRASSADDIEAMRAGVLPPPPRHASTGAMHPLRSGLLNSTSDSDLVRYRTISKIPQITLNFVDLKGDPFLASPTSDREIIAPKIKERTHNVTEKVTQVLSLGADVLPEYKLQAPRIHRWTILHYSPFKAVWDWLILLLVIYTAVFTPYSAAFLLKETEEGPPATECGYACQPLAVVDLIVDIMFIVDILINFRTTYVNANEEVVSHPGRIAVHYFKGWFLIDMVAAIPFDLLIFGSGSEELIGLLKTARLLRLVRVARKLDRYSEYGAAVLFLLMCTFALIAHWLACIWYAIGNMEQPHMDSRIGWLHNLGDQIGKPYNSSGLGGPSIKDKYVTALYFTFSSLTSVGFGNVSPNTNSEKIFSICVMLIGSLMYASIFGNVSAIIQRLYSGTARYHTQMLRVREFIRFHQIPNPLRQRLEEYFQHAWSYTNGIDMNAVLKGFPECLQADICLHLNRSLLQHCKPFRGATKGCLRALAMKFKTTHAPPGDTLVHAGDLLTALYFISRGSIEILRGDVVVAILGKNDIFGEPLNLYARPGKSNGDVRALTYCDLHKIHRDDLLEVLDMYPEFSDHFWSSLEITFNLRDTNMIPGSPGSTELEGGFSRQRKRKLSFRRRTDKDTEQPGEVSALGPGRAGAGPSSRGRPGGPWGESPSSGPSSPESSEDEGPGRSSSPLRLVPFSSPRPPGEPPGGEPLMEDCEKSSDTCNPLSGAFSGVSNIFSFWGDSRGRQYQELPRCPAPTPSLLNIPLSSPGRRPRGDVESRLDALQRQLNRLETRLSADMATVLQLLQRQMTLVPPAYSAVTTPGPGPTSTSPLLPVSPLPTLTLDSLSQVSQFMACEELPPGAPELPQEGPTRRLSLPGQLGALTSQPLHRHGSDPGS
# [7] = stability in human hepatocytes; format: in vitro ADME
# clearance in rodents = settings: in vivo
# [8] = human, plasma, patients, single oral dose
smiles,measurement,setting,value
"Cc1c(CN2CCN(C(=O)[C@H](C)O)CC2)sc2c(N3CCOCC3)nc(-c3cnc(N)nc3)nc12 [GDC-0980, (S)-1-(4-((2-(2-aminopyrimidin-5-yl)-7-methyl-4-morpholinothieno[3,2-d]pyrimidin-6-yl)methyl)piperazin-1-yl)-2-hydroxypropan-1-one]",decrease in target lesions by RECIST,adrenal cortical cancer; after 3 weeks of treatment in Cycle 2,39%
same,decrease in target lesions by RECIST,adrenal cortical cancer; end of Cycle 1,22%
same,dose at which the MTD was exceeded,"[1]; QD, 21/28-day schedule",70 mg
same,G5 adverse event considered related to GDC-0980,"[1]; metastatic colorectal cancer patient, 50 mg QD, about 1 week after starting Cycle 2",G5 adverse event of colitis
same,Ki,mTOR,17.3 nM
same,decrease in pAKT in PRP,pAKT (S473) in PRP; doses of 16 mg,90%
same,time for which significant inhibition of pAKT was maintained,pAKT (S473) in PRP; doses of 50 mg,24 hours
same,time on study before progression of disease,"mesothelioma; epitheloid mesothelioma, 8 mg QD, 21/28",about 4.5 months
same,decrease in target lesions by RECIST,"mesothelioma; epitheloid mesothelioma, PIK3CA R88Q, 8 mg QD, end of Cycle 2",26%
same,decrease in target lesions by RECIST,"mesothelioma; epitheloid pleural mesothelioma, 50 mg QD, end of Cycles 1 and 2",26%
same,decrease in target lesions by RECIST,"mesothelioma; peritoneal mesothelioma, 32 mg QD, end of Cycle 6",28%
same,AUC(0-t),"[2]; human, plasma, 8 mg QD, 21/28 day schedule",~0.4 µM·h
same,AUC(0-t),"[2]; human, plasma, 32 mg QD, 21/28 day schedule",~4.4 µM·h
same,AUC(0-t),"[2]; human, plasma, 40 mg QD, 28/28 day schedule",~4.1 µM·h
same,AUC(0-t),"[2]; human, plasma, 50 mg QD, 21/28 day schedule",~3 µM·h
same,Tmax,[2]; [8],~2 h
same,half-life,[2]; [8],6 to 18 h
same,dose dependence of AUC and Cmax,"[2]; patients, single oral dose",dose-proportional increases
same,patients with increased blood glucose,[3]; human,83.3%
same,drug-related AEs that occurred in =10% of patients,[3],"fatigue, diarrhea, rash, nausea, decreased appetite, mucositis, hyperglycemia, vomiting, pruritus, GERD (Gastroesophageal reflux disease), and constipation"
same,number of patients with G3 increased blood glucose,[3],Six
same,clearance,clearance in dogs,12 mL/min/kg
same,half-life,"[4]; in vivo, read-out: terminal half-life",6 to 18 h
same,dose dependence of AUC and Cmax,[4],dose-proportional increases
same,minimal exposure (AUC) needed to achieve 50% tumor growth inhibition,MDA-MB-361.1 xenografts,approximately 1.7 μM·hr
same,number of patients still on study after a year,solid tumors,2
same,IC50,MCF7-neo/HER2 cell line,320 nM
same,minimum dose producing significant growth inhibition,[5],1.0 mg/kg
same,stability in human microsomes,[6],stable
same,IC50,hERG,> 100000 nM
same,stability in human hepatocytes,[7],stable
same,clearance,clearance in rodents,60 mL/min/kg
